Experimental data: patent publication US20100267561A1, “HERBICIDAL PYRIDAZINONE DERIVATIVES” (priority 2007, published 2010)

Experiments:
Type in all cases: in vivo
[1] = system: bermudagrass (Cynodon dactylon); test: Test B pre-/postemergence plant response; conditions: for Bermudagrass plant response rating: 8 g ai/ha
Summary of the method: (§1)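 Seeds were sown and sprayed preemergence, while plants at 2 to 18 cm (1- to 4-leaf stage) got postemergence sprays. Compounds were formulated in a non-phytotoxic solvent mixture with surfactant. After 13 to 15 days in a greenhouse, injury was rated visually against untreated controls, 0 (no effect) to 100 (complete control).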

[2] = system: catchweed bedstraw (Galium aparine); test: Test B pre-/postemergence plant response; conditions: Preemergence; for Galium plant response rating: 8 g ai/ha
Summary of the method: as §1

[3] = system: cocklebur (Xanthium strumarium); test: Test B pre-/postemergence plant response; conditions: for Cocklebur plant response rating: 8 g ai/ha
Summary of the method: as §1

[4] = system: downy bromegrass (Bromus tectorum); test: Test B pre-/postemergence plant response; conditions: for Bromegrass, Downy plant response rating: 8 g ai/ha
Summary of the method: as §1

[5] = system: large crabgrass (Digitaria sanguinalis); test: Test B pre-/postemergence plant response
Summary of the method: as §1

soybean (Glycine max) = test: Test B pre-/postemergence plant response
Summary of the method: as §1

[6] = system: velvetleaf (Abutilon theophrasti); test: Test B pre-/postemergence plant response
Summary of the method: as §1

[7] = system: wheat (Triticum aestivum); test: Test B pre-/postemergence plant response
Summary of the method: as §1

wild oat (Avena fatua) = test: Test B pre-/postemergence plant response
Summary of the method: as §1

[8] = system: woolly cupgrass (Eriochloa villosa); test: Test B pre-/postemergence plant response
Summary of the method: as §1

[9] = system: barnyardgrass (Echinochloa crus-galli); test: Test B flooded paddy test plant response
Summary of the method: (§2)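 Rice, umbrella sedge, ducksalad and barnyardgrass at 2-leaf stage; pots flooded to 3 cm, compounds applied into paddy water, depth held throughout. Greenhouse 13 to 15 days, then visual rating vs untreated controls on 0–100 scale (0 no effect, 100 complete control); dash means no test result.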

[10] = system: ducksalad (Heteranthera limosa); test: Test B flooded paddy test plant response
Summary of the method: as §2

rice (Oryza sativa) = test: Test B flooded paddy test plant response
Summary of the method: as §2

[11] = system: umbrella sedge (Cyperus difformis); test: Test B flooded paddy test plant response
Summary of the method: as §2

[12] = Preemergence, scale 0 to 100 (0 no effect, 100 complete control)
[13] = Preemergence, 16 g ai/ha, scale 0 to 100 (0 no effect, 100 complete control)
[14] = Preemergence, 31 g ai/ha, 0 to 100 scale, 0 no effect, 100 complete control
[15] = Preemergence, 62 g ai/ha, scale 0 to 100
[16] = 31 g ai/ha, 0 to 100 scale, 0 no effect, 100 complete control
[17] = Preemergence, 8 g ai/ha, scale 0 to 100
[18] = Preemergence, 16 g ai/ha, scale 0 to 100
[19] = Preemergence, 31 g ai/ha, scale 0 to 100 (0 no effect, 100 complete control)
[20] = Preemergence, 62 g ai/ha, 0 to 100 scale, 0 no effect, 100 complete control
[21] = Flood (flooded paddy test), 62 g ai/ha, scale 0 to 100, 0 no effect, 100 complete control
[22] = Flood (flooded paddy test), 125 g ai/ha, scale 0 to 100, 0 no effect, 100 complete control
[23] = Flood (flooded paddy test), 250 g ai/ha, scale 0 to 100, 0 no effect, 100 complete control
[24] = Flood, 31 g ai/ha, scale 0 to 100
[25] = Postemergence, 16 g ai/ha, scale 0 to 100
[26] = Postemergence, 31 g ai/ha, scale 0 to 100, 0 no effect, 100 complete control
[27] = Postemergence, 62 g ai/ha, scale 0 to 100, 0 no effect, 100 complete control
[28] = 8 g ai/ha, postemergence, 0-100 scale

## Cc1cc(-c2ccc(Cl)cc2)nn1-c1c(OS(=O)(=O)c2ccc(Cl)s2)cnn(C)c1=O [Compound 55]
[1]; [12]
  Bermudagrass plant response rating: 100
[1]; [13]
  Plant response rating, Bermudagrass: 100
[1]; [14]
  Plant response rating, Bermudagrass: 100
[1]; [15]
  Plant response rating, Bermudagrass: 100
[2]; [16]
  Plant response rating, Galium: 0
[2]; 62 g ai/ha, scale 0 to 100
  Plant response rating, Galium: 0
[2]; scale 0 to 100
  Galium plant response rating: 0
[3]; [14]
  Plant response rating, Cocklebur: 0
[3]; [15]
  Plant response rating, Cocklebur: 0
[3]; Preemergence, scale 0 to 100
  Cocklebur plant response rating: 0
[4]; [13]
  Plant response rating, Bromegrass, Downy: 0
[4]; [14]
  Plant response rating, Bromegrass, Downy: 30
[4]; [15]
  Plant response rating, Bromegrass, Downy: 60
[4]; Preemergence, scale 0 to 100
  Bromegrass, Downy plant response rating: 0
[5]; [14]
  Plant response rating, Crabgrass, Large: 100
[5]; [15]
  Plant response rating, Crabgrass, Large: 100
[5]; [17]
  Crabgrass, Large plant response rating: 20
[5]; [18]
  Crabgrass, Large plant response rating: 98
Soybean (Glycine max); [19]
  Plant response rating, Soybean: 0
Soybean (Glycine max); [15]
  Plant response rating, Soybean: 0
Soybean (Glycine max); [17]
  Soybean plant response rating: 0
Soybean (Glycine max); [18]
  Soybean plant response rating: 0
[6]; [19]
  Plant response rating, Velvetleaf: 0
[6]; [20]
  Plant response rating, Velvetleaf: 0
[6]; [17]
  Velvetleaf plant response rating: 0
[6]; [18]
  Velvetleaf plant response rating: 0
[7]; [19]
  Plant response rating, Wheat: 0
[7]; [20]
  Plant response rating, Wheat: 5
[7]; [18]
  Wheat plant response rating: 0
Wild oat (Avena fatua); [19]
  Plant response rating, Oat, Wild: 35
Wild oat (Avena fatua); [15]
  Plant response rating, Oat, Wild: 70
Wild oat (Avena fatua); [17]
  Oat, Wild plant response rating: 0
Wild oat (Avena fatua); [18]
  Oat, Wild plant response rating: 0
[8]; [14]
  Plant response rating, Cupgrass, Woolly: 100
[8]; [15]
  Plant response rating, Cupgrass, Woolly: 100
[8]; [17]
  Cupgrass, Woolly plant response rating: 15
[8]; [18]
  Cupgrass, Woolly plant response rating: 80
[9]; [21]
  Plant response rating, Barnyardgrass: 0
[9]; [22]
  Plant response rating, Barnyardgrass: 0
[9]; [23]
  Plant response rating, Barnyardgrass: 65
[9]; [24]
  Plant response rating, Barnyardgrass: 0
[10]; [21]
  Plant response rating, Ducksalad: 0
[10]; [22]
  Plant response rating, Ducksalad: 0
[10]; [23]
  Plant response rating, Ducksalad: 75
[10]; [24]
  Plant response rating, Ducksalad: 0
Rice (Oryza sativa); [21]
  Plant response rating, Rice: 0
Rice (Oryza sativa); [22]
  Plant response rating, Rice: 0
Rice (Oryza sativa); [23]
  Plant response rating, Rice: 30
Rice (Oryza sativa); [24]
  Plant response rating, Rice: 0
[11]; [21]
  Plant response rating, Sedge, Umbrella: 70
[11]; [22]
  Plant response rating, Sedge, Umbrella: 75
[11]; [23]
  Plant response rating, Sedge, Umbrella: 80
[11]; [24]
  Plant response rating, Sedge, Umbrella: 45

## CCCc1cc(-c2ccc(Cl)cc2)nn1-c1c(O)cnn(C)c1=O [Compound 43]
[1]; postemergence, 0-100 scale
  Bermudagrass plant response rating: 20
[1]; [25]
  Plant response rating, Bermudagrass: 45
[1]; [26]
  Plant response rating, Bermudagrass: 65
[1]; [12]
  Bermudagrass plant response rating: 0
[1]; [13]
  Plant response rating, Bermudagrass: 0
[1]; [14]
  Plant response rating, Bermudagrass: 65
[1]; [15]
  Plant response rating, Bermudagrass: 95
[2]; 16 g ai/ha, scale 0 to 100 (0 no effect, 100 complete control)
  Plant response rating, Galium: 0
[2]; [16]
  Plant response rating, Galium: 0
[2]; 62 g ai/ha, scale 0 to 100
  Plant response rating, Galium: 0
[2]; scale 0 to 100
  Galium plant response rating: 0
[3]; postemergence, 0-100 scale
  Cocklebur plant response rating: 0
[3]; [25]
  Plant response rating, Cocklebur: 0
[3]; [26]
  Plant response rating, Cocklebur: 0
[3]; [27]
  Plant response rating, Cocklebur: 0
[3]; [13]
  Plant response rating, Cocklebur: 0
[3]; [14]
  Plant response rating, Cocklebur: 0
[3]; [15]
  Plant response rating, Cocklebur: 0
[3]; Preemergence, scale 0 to 100
  Cocklebur plant response rating: 0
[4]; postemergence, 0-100 scale
  Bromegrass, Downy plant response rating: 40
[4]; [25]
  Plant response rating, Bromegrass, Downy: 45
[4]; [26]
  Plant response rating, Bromegrass, Downy: 60
[4]; [27]
  Plant response rating, Bromegrass, Downy: 65
[4]; [13]
  Plant response rating, Bromegrass, Downy: 0
[4]; [14]
  Plant response rating, Bromegrass, Downy: 70
[4]; [15]
  Plant response rating, Bromegrass, Downy: 80
[4]; Preemergence, scale 0 to 100
  Bromegrass, Downy plant response rating: 0
[5]; [28]
  Crabgrass, Large plant response rating: 65
[5]; [25]
  Plant response rating, Crabgrass, Large: 70
[5]; [26]
  Plant response rating, Crabgrass, Large: 75
[5]; [27]
  Plant response rating, Crabgrass, Large: 85
[5]; [13]
  Plant response rating, Crabgrass, Large: 65
[5]; [14]
  Plant response rating, Crabgrass, Large: 98
[5]; [15]
  Plant response rating, Crabgrass, Large: 100
[5]; [17]
  Crabgrass, Large plant response rating: 15
Soybean (Glycine max); [28]
  Soybean plant response rating: 0
Soybean (Glycine max); [25]
  Plant response rating, Soybean: 0
Soybean (Glycine max); [27]
  Plant response rating, Soybean: 0
Soybean (Glycine max); [13]
  Plant response rating, Soybean: 0
Soybean (Glycine max); [19]
  Plant response rating, Soybean: 0
Soybean (Glycine max); [15]
  Plant response rating, Soybean: 0
Soybean (Glycine max); [17]
  Soybean plant response rating: 0
[6]; [28]
  Velvetleaf plant response rating: 0
[6]; [25]
  Plant response rating, Velvetleaf: 0
[6]; [27]
  Plant response rating, Velvetleaf: 0
[6]; [13]
  Plant response rating, Velvetleaf: 0
[6]; [19]
  Plant response rating, Velvetleaf: 0
[6]; [20]
  Plant response rating, Velvetleaf: 0
[6]; [17]
  Velvetleaf plant response rating: 0
[7]; [28]
  Wheat plant response rating: 30
[7]; [25]
  Plant response rating, Wheat: 70
[7]; [27]
  Plant response rating, Wheat: 100
[7]; [13]
  Plant response rating, Wheat: 10
[7]; [19]
  Plant response rating, Wheat: 15
[7]; [20]
  Plant response rating, Wheat: 80
[7]; [17]
  Wheat plant response rating: 0
Wild oat (Avena fatua); [28]
  Oat, Wild plant response rating: 95
Wild oat (Avena fatua); [25]
  Plant response rating, Oat, Wild: 100
Wild oat (Avena fatua); [26]
  Plant response rating, Oat, Wild: 100
Wild oat (Avena fatua); [27]
  Plant response rating, Oat, Wild: 100
Wild oat (Avena fatua); [13]
  Plant response rating, Oat, Wild: 90
Wild oat (Avena fatua); [19]
  Plant response rating, Oat, Wild: 95
Wild oat (Avena fatua); [15]
  Plant response rating, Oat, Wild: 95
Wild oat (Avena fatua); [17]
  Oat, Wild plant response rating: 70
[8]; [28]
  Cupgrass, Woolly plant response rating: 80
[8]; [25]
  Plant response rating, Cupgrass, Woolly: 90
[8]; [26]
  Plant response rating, Cupgrass, Woolly: 95
[8]; [27]
  Plant response rating, Cupgrass, Woolly: 95
[8]; [13]
  Plant response rating, Cupgrass, Woolly: 60
[8]; [14]
  Plant response rating, Cupgrass, Woolly: 98
[8]; [15]
  Plant response rating, Cupgrass, Woolly: 100
[8]; [17]
  Cupgrass, Woolly plant response rating: 0
[9]; [21]
  Plant response rating, Barnyardgrass: 50
[9]; [22]
  Plant response rating, Barnyardgrass: 75
[9]; [24]
  Plant response rating, Barnyardgrass: 40
[10]; [21]
  Plant response rating, Ducksalad: 0
[10]; [22]
  Plant response rating, Ducksalad: 0
[10]; [23]
  Plant response rating, Ducksalad: 30
[10]; [24]
  Plant response rating, Ducksalad: 0
Rice (Oryza sativa); [21]
  Plant response rating, Rice: 15
Rice (Oryza sativa); [22]
  Plant response rating, Rice: 20
Rice (Oryza sativa); [23]
  Plant response rating, Rice: 20
Rice (Oryza sativa); [24]
  Plant response rating, Rice: 0
[11]; [21]
  Plant response rating, Sedge, Umbrella: 0
[11]; [22]
  Plant response rating, Sedge, Umbrella: 0
[11]; [23]
  Plant response rating, Sedge, Umbrella: 0
[11]; [24]
  Plant response rating, Sedge, Umbrella: 0
